Measured values: ChEMBL document CHEMBL6083242, “Design and optimization of novel Tetrahydro-β-carboline-based HDAC inhibitors with potent activities against tumor cell growth and metastasis” (Bioorg Med Chem Lett, 2024)
pIC50: −log10 of the molar value. Calls of active or inactive are those of the source. The calls are words filed in the database; no cut-off is given here.

What was measured:
[1] = test system: MDA-MB-231; assay: Antiproliferative activity against human MDA-MB-231 cells assessed as inhibition of cell proliferation
[2] = test system: A549; assay: Antiproliferative activity against human A549 cells assessed as inhibition of cell proliferation
[3] = test system: MCF7; assay: Antiproliferative activity against human MCF7 cells assessed as inhibition of cell proliferation
[4] = test system: HeLa; assay: Antiproliferative activity against human HeLa cells assessed as inhibition of cell proliferation
[5] = test system: A549; assay: Induction of apoptosis in human A549 cells at 5 uM incubated for 72 hrs by Annexin V/PI staining based flow cytometry analysis relative to control; type: functional
[6] = test system: A549; assay: Induction of apoptosis in human A549 cells assessed as upregulation of Bax expression incubated for 24 hrs by Western blot analysis; type: functional, cell-based; details: dose 0.5-5 µM
[7] = test system: A549; assay: Induction of apoptosis in human A549 cells assessed as induction of gammaH2AX expression at 0.5 uM incubated for 24 hrs by immunofluorescence analysis; type: functional, cell-based
[8] = test system: A549; assay: Induction of apoptosis in human A549 cells at 0.5 to 5 uM incubated for 72 hrs by Annexin V/PI staining based flow cytometry analysis (reference value: 17.35%); type: functional; details: dose 0.5-5 µM
[9] = test system: A549; assay: Induction of cell cycle arrest in human A549 cells assessed as accumulation of cells in G2/M phase by measuring CDK1 level incubated for 24 hrs by Western blotting analysis; type: functional, cell-based; details: dose 0.5-5 µM
[10] = test system: A549; assay: Induction of apoptosis in human A549 cells assessed as upregulation of cleaved caspase 3 expression incubated for 24 hrs by Western blot analysis; type: functional, cell-based; details: dose 0.5-5 µM
[11] = test system: A549; assay: Antimetastatic activity in human A549 cells assessed as reduction in cell migration incubated for 24 hrs by wound healing assay; type: functional, cell-based; details: dose 0.5-5 µM
[12] = test system: A549; assay: Induction of cell cycle arrest in human A549 cells assessed as accumulation of cells in G2/M phase by measuring cyclin B1 level incubated for 24 hrs by Western blotting analysis; type: functional, cell-based; details: dose 0.5-5 µM
[13] = test system: A549; assay: Induction of apoptosis in human A549 cells assessed as gammaH2AX foci formation incubated for 24 hrs by immunofluorescence analysis; type: functional, cell-based; details: dose 0.5-5 µM
[14] = test system: A549; assay: Induction of apoptosis in human A549 cells assessed as downregulation of Bcl-2 expression incubated for 24 hrs by Western blot analysis; type: functional, cell-based; details: dose 0.5-5 µM
[15] = test system: A549; assay: Induction of apoptosis in human A549 cells assessed as increase in ROS level incubated for 24 hrs by DCFH-DA staining based fluorescence analysis; type: functional, cell-based; details: dose 0.5-5 µM
[16] = test system: A549; assay: Induction of apoptosis in human A549 cells assessed as upregulation of PARP expression incubated for 24 hrs by Western blot analysis; type: functional, cell-based; details: dose 0.5-5 µM
[17] = test system: A549; assay: Induction of apoptosis in human A549 cells incubated for 72 hrs by Annexin V/PI staining based flow cytometry analysis; type: functional, cell-based; details: dose 0.5-5 µM
[18] = test system: A549; assay: Induction of cell cycle arrest in human A549 cells assessed as accumulation of cells at G2/M phase incubated for 24 hrs by flow cytometry analysis; type: functional, cell-based; details: dose 0.5-5 µM

SMILES | pIC50 [1] | pIC50 [2] | pIC50 [3] | pIC50 [4] | Activity [5] [%] | other results
O=C(CCCCCCC(=O)N1CCc2c([nH]c3ccccc23)C1)NO | 3.71 | 5.64 | 5.74 | 6.37 |  | 
O=C(CCCCCCC(=O)Nc1ccccc1)NO [VORINOSTAT] |  |  |  |  | 34.83 | 

More lines, main results first:

pIC50 [1] | pIC50 [2] | pIC50 [3] | pIC50 [4] | SMILES | Activity [5] [%] | other results
5.77 | 5.38 | 5.52 | 5.22 | CC(C)Cn1c2c(c3ccccc31)CCN(C(=O)CCCCCCC(=O)NO)C2 |  | 
5.68 | 5.57 | 5.92 | 3.74 | O=C(CCCCCCC(=O)N1CCc2c(n(CC3CC3)c3ccccc23)C1)NO |  | 
5.17 | 5.96 | 5.25 | 5.22 | CC(=O)N1CCc2c(n(CCCCCCC(=O)NO)c3ccccc23)C1 | 43.95 | Activity [6]: Dose-dependent-effect; Activity [7]: Active; Activity [8]: 24.17%; Activity [9]: Dose-dependent-effect; Activity [10]: Dose-dependent-effect; Activity [11]: Dose-dependent-effect; Activity [12]: Dose-dependent-effect; Activity [13]: Dose-dependent-effect; Activity [14]: Dose-dependent-effect; Activity [15]: Dose-dependent-effect; Activity [16]: Dose-dependent-effect; Activity [17]: Dose-dependent-effect; Activity [18]: Dose-dependent-effect
